Results from patent publication US9650399B2, “Salicylic acid derivatives, pharmaceutically acceptable salt thereof, composition thereof and method of use thereof” (The Governing Council of the University of Toronto, priority 2012, dated 2017).
Like-named read-outs stand apart in the source and are kept apart here.

Columns and labels:
[1] = system: BTSC68EF; assay: alamarBlue cell viability, BTSC 68EF; type: cell-based, human; details: Table 4 library screen, alamarBlue; for IC50: Homo sapiens, read-out: 68EF IC50
Experimental: (§1) First, the library was screened for biological activity against a set of three representative GBM BTSCs derived from GBM patients, including the very aggressive GBM BTSC lines, BTSC73M, BTSC30M, BTSC68EF. Dissociated BTSC spheres were seeded at 1500 cells/96-well and treated with drug compound or vehicle (DMSO) one day after plating. Cell viability following drug treatment was assessed after 72 hrs using the ALAMARBLUE™ assay (Invitrogen) according to the manufacturer's instructions. All culture experiments were performed in triplicate with a minimum of three wells per condition.
(§2) BTSC spheres were dissociated to single cells with the enzyme Accumax (Innovative Technologies), seeded at 1500 cells/96-well and treated with drug or vehicle (DMSO) one day after plating. […] BTSC spheres were dissociated to single cells as above and plated in 96 well plates in triplicate at 3000 cells/96-well. […] Cell viability following drug treatment was assessed three days later using the ALAMARBLUE™ assay (Invitrogen) according to the manufacturer's instructions. All culture experiments were performed in triplicate with a minimum of three wells per condition.

[2] = system: BTSCs; assay: alamarBlue cytotoxicity across BTSC lines; type: cell-based, human; details: Homo sapiens
Experimental: as §1, §2

[3] = system: BTSC30M; assay: alamarBlue cell viability, BTSC 30M; type: cell-based, human
Experimental: as §1, §2

[4] = system: pSTAT3 (Y705); assay: Western blot of phosphorylated STAT3 in BTSCs; type: cell-based, human; details: Western blot
From the text: Blots were stained with antibodies: phospho-Y705, phospho-S727, Bcl-xL, cyclin D1, PARP and Actin. Bands were visualized with the ECL PLUS™ Western Blotting Detection System and […]™ (Amersham). […] BTSC spheres were lysed in modified RIPA buffer supplemented with Complete Mini protease (Roche) and Halt phosphatase (Thermo Scientific) inhibitor cocktails. […] Blots were stained with the following antibodies: phospho-STAT3 Y705 (1:1000, Cell Signalling Technology), phospho-STAT3 S727 (1:1000, Cell Signalling Technology), STAT3 (1:1000, Santa Cruz Biotechnology), Bcl-xL (1:1000, Cell Signalling Technology), cyclin D1 (1:1000, Cell Signalling Technology) PARP (1:1000, Cell Signalling Technology) and Actin (1:2500, Santa Cruz Biotechnology). HRP conjugated secondary antibodies, goat anti-rabbit (Cell Signalling Technology) were used at 1:2000 and donkey anti-mouse, donkey anti-goat, and goat anti-rabbit, (Calbiochem) were used at 1:6000. Bands were visualized with the ECL Plus Western Blotting Detection System and Hyperfilm (Amersham).

[5] = system: BTSC73M; assay: alamarBlue cell viability, BTSC 73M; type: cell-based, human; details: for IC50 / 73M IC50 (μM): alamarBlue
Experimental: as §1, §2

[6] = system: normal human fetal astrocytes (HF 2003, HF 2006, HF 2009, HF 2013); assay: toxicity in normal human fetal astrocytes; type: cell-based; details: concentrations of up to 5 μM
Experimental: Given the nM cytoxicity, these compounds were assayed for biological effects in healthy cells.
GBM BTSCs were cultured from a series of tumor specimens obtained following informed consent from adult GBM patients during their operative procedure as previously described (Kelly et al, Stem Cells 2009) and approved by the University of Calgary Ethics Review Board. Briefly, BTSC cultures were initiated in serum-free defined culture medium (SFM) and gave rise to nonadherent spheres after 7 to 21 days in culture. Primary tumor spheres were expanded for several passages and then cryopreserved in 10% DMSO (Sigma Aldrich) in serum-free defined medium until use in experiments. Human fetal neural stem cells were also cultured as previously described and induced to differentiate into astrocytes by addition of 10% fetal bovine serum and removal of EGF, FGF-2 and heparan sulfate.

[7] = system: 147EF; assay: alamarBlue cell viability, BTSC 147EF; type: cell-based, human; details: Homo sapiens, Table 4 library screen
From the text: BTSC spheres were dissociated to single cells with the enzyme Accumax (Innovative Technologies), seeded at 1500 cells/96-well and treated with drug or vehicle (DMSO) one day after plating. Cytotoxicity studies were repeated independently at Sickkids Hospital using BTSC lines 25M, 67EF, 73EF, 84EF and 127EF. BTSC spheres were dissociated to single cells as above and plated in 96 well plates in triplicate at 3000 cells/96-well. In both sets of experiments drugs were used as serial dilutions within the range of 5 μM to 100 nM in the first set and 25 μM to 10 nM. Cell viability following drug treatment was assessed three days later using the ALAMARBLUE™ assay (Invitrogen) according to the manufacturer's instructions. All culture experiments were performed in triplicate with a minimum of three wells per condition. Table 4 below illustrates a screen of the library against a number of BTSCs using ALAMARBLUE™ assay.

[8] = target: His-tagged STAT5; assay: surface plasmon resonance (SPR) binding, STAT5; set-up: species or system human; details: SPR control experiment
Experimental: Interactions of His-tagged STAT3 with small molecules were investigated using SPR spectroscopy. The binding experiments were carried out on a ProteOn XPR36 (Bio-Rad) biosensor at 25° C. using the HTE sensor chip (Bio-Rad, Ontario, Canada). The flow cells of the sensor chip were loaded with a nickel solution at 30 μL/min for 120 s to saturate the Tris NTA surface with Ni(II) ions. Purified His-tagged STAT3 and STAT5 (SignalChem, British Columbia, Canada) in PBST buffer (PBS with 0.005% (v/v) Tween-20 and 0.001% DMSO pH 7.4) was injected in the first and second channels of the chip respectively in the vertical direction at a flow rate of […] for 300 s, which attained, on average, 8000 resonance unit (RU). After a wash with PBST buffer, inhibitors binding to the immobilized proteins were monitored by injecting a range of concentrations along with a blank at a flow rate of 100 μL/min for 200 s for each of these small molecules. When the injection of the small molecule inhibitor was completed, running buffer was allowed to flow over the immobilized substrates for the non-specifically bound inhibitors to dissociate for 600 s. Following dissociation of the inhibitors, the chip surface was regenerated with an injection of 1 M NaCl at a flow rate of […] for 18 s. […] Data were analyzed using ProteOn Manager Software version 3.1. […]

[9] = cited from earlier work
[10] = system: patient-derived pancreatic cancer line (Panc10.05); assay: MTS cell survival, pancreatic cancer line; type: cell-based; details: Homo sapiens, Panc1005, Panc10.05, 72 h, read-out: ED50 (IC50)
Experimental: Low passage patient-derived pancreatic cancer line (Panc10.05) was plated in 96-well plates (3×10^3 per well) and allowed to attach overnight. STAT3 inhibitors 31, 41, 42 and 38 were added at indicated concentrations. Cell survival was measured 72 h after drug addition with the MTS assay.

[11] = target: STAT3 SH2 domain (Homo sapiens, UniProt P40763); assay: fluorescence polarization (FP) assay, STAT3; details: 5-FAM-GpYLPQTV-NH2 probe
Experimental: The buffer used contained 50 mM NaCl, 10 mM Hepes, pH 7.5, 1 mM EDTA and 2 mM dithiothreitol and a final concentration of 5% DMSO.
Test compounds were dissolved in DMSO and diluted using a dilution medium consisting of 50 mM NaCl, 10 mM Hepes, pH 7.5, 1 mM EDTA, and 2 mM dithiothreitol. Fluorescently-labelled pYLPQTV peptide (FAM-pYLPQTV) was kept at a final concentration of 10 nM in the buffered solution.
The midpoint of the saturation curve was used to determine the STAT3 concentration required for the competitive fluorescent polarization assay. […] 7.5 μL of inhibitory molecules (and positive control) solution were individually added to the plate. The final inhibitory concentrations were 100 μL, 50 μL, 25A, 12.5 μL, 6.3 μL, or 3.1 μL. The 10% DMSO buffer solution was incubated for 15-30 minutes before signal measurements by the Infinite M1000.

[12] = Homo sapiens, read-out: 30M IC50 (μM), Table 4 library screen, alamarBlue
[13] = Homo sapiens, Table 4 library screen, read-out: 73M IC50
[14] = Table 4 library screen, alamarBlue

STAT3 SH2 domain, sequence (P40763 whole entry, the tested form may be a part): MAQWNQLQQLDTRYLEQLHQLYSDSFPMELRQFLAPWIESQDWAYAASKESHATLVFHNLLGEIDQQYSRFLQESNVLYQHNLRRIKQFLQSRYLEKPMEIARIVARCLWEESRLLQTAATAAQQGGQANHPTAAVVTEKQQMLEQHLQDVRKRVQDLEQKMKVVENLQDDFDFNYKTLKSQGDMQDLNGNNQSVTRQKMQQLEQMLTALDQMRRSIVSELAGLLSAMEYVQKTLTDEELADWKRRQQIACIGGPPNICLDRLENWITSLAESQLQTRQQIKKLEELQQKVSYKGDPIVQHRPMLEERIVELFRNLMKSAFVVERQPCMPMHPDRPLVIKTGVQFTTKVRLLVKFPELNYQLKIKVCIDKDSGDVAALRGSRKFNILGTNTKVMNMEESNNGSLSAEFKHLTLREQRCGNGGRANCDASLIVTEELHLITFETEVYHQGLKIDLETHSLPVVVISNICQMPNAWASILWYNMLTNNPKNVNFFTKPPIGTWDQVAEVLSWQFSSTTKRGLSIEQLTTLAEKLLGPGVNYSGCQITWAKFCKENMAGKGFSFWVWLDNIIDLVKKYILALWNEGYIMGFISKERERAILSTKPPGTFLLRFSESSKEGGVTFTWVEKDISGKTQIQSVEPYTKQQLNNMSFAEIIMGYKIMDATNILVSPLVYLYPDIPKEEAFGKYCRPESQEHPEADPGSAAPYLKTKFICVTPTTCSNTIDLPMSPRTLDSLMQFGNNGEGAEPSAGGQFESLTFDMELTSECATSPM

With `CC(=O)Oc1cc(N(Cc2ccc(C3CCCCC3)cc2)C(=O)CN(C)S(=O)(=O)c2c(F)c(F)c(F)c(F)c2F)ccc1C(=O)O` [Compound 22, 2-acetoxy-4-(N-(4-cyclohexylbenzyl)-2-(2,3,4,5,6-pentafluoro-N-methylphenylsulfonamido)acetamido)benzoic acid] the IC50 [1] was 891 nM, the EC50 ([2]; collective range over 8 BTSC lines, read-out: EC50s across all 8 BTSCs evaluated) was 66 to 1140 nM and the IC50 ([2]; collective range, units given in the value, read-out: IC50 values of the top four ranked compounds against BTSCs) was 100 to 3800 nM. For the same compound, the IC50 [3, 12] was 0.526 µM, the IC50 ([3]; Homo sapiens, read-out: IC50 (nM) in BTSC 30M) was 0.526 ± 0.013 µM and the pSTAT3 inhibition potency ([4]; 0, 0.1, 0.5, 1.0 and 5.0 μM) was “nM inhibition of pSTAT3”. For the same compound, the “suppression of pSTAT3 (Y705)” value ([4]; 1 μM, BTSCs) was “most suppression of pSTAT3 (Y705)”, the IC50 [5, 13] was 1.45 µM and the “toxicity in normal human cells” value [6] was “minimal toxicity”. It also gave an IC50 [7] of 776 nM.

With `CC(C)C[C@H](NC(=O)[C@@H](N)Cc1ccc(OP(=O)(O)O)cc1)C(=O)N1CCC[C@H]1C(=O)N[C@@H](CCC(N)=O)C(=O)N[C@H](C(=O)N[C@H](C(N)=O)C(C)C)[C@@H](C)O` [STAT3 peptide sequence] the “KD (STAT5)” value [8] was “No binding”.

In the case of “Cucurbitacin [Cucurbitacin 1, reference compound]”, the EC50 ([3]; read-out: EC50 v.s. 30M, BTSC 30M) is given as 630 nM, the IC50 ([3]; read-out: IC50 (μM) 30M, Table 2, BTSC 30M, alamarBlue, 72 hrs) is given as 0.63 ± 0.08 µM and the BBB permeability [9] is given as “poor BBB permeability”. For the same compound, the EC50 ([5]; BTSC 73M, read-out: EC50 v.s. 73M) was 700 nM and the IC50 ([5]; Table 2, BTSC 73M, 72 hrs, read-out: IC50 (μM) 73M) was 0.7 ± 0.06 µM.

With `Cc1ccc(S(=O)(=O)N(C)CC(=O)N(Cc2ccc(C3CCCCC3)cc2)c2ccc(C(=O)O)cc2)cc1` [Compound 42, 4-(N-(4-cyclohexylbenzyl)-2-(N,4-dimethylphenylsulfonamido)acetamido)benzoic acid] the “30M IC50 (μM)” value [3, 14] was “no effect”, the “73M IC50 (μM)” value ([5]; Table 4 library screen) was “no effect” and the IC50 [10] was 16700 nM.

With `CN(CC(=O)N(Cc1ccc(C2CCCCC2)cc1)c1ccc(C(=O)OCOC(=O)C(C)(C)C)cc1)S(=O)(=O)c1c(F)c(F)c(F)c(F)c1F` [Compound 27, (pivaloyloxy)methyl 4-(N-(4-cyclohexylbenzyl)-2-(2,3,4,5,6-pentafluoro-N-methylphenylsulfonamido)acetamido)benzoate] the “68EF IC50 (μM)” value [1] was “no effect”, the “30M IC50 (μM)” value [3, 14] was “no effect” and the “disruption of STAT3:phosphopeptide interaction / binding activity (in words)” value [11] was “most potent inhibitor of STAT3”.

In the case of `CN(CC(=O)N(Cc1ccc(C2CCCCC2)cc1)c1ccc(O)c(C(=O)O)c1)S(=O)(=O)c1c(F)c(F)c(F)c(F)c1F` [Compound 38, 5-(N-(4-cyclohexylbenzyl)-2-(2,3,4,5,6-pentafluoro-N-methylphenylsulfonamido)acetamido)-2-hydroxybenzoic acid], the IC50 [1] is reported as 3050 nM, the IC50 [3, 12] is reported as 2.07 µM and the IC50 [5, 13] is reported as 2.55 µM. For the same compound, the IC50 [10] was 4800 nM.

In the case of `CN(CC(=O)N(Cc1ccc(C2CCCCC2)cc1)c1ccccc1)S(=O)(=O)c1c(F)c(F)c(F)c(F)c1F` [Compound 36, N-(4-cyclohexylbenzyl)-2-(2,3,4,5,6-pentafluoro-N-methylphenylsulfonamido)-N-phenylacetamide], the “73M IC50 (μM)” value ([5]; Table 4 library screen) is reported as “no effect” and the “disruption of STAT3:phosphopeptide interaction / binding activity (in words)” value [11] is reported as “no disruption of the STAT3:phosphopeptide interaction”.
